Data reported in patent US7807701B2, “Dibenzylamine compounds and pharmaceutical use thereof” (Japan Tobacco Inc., priority 2002, dated 2010).
pIC50: −log10 of the molar value. Counter-ions that a name gives are not always drawn.

The molecules below were run against T1, CETP (Homo sapiens, UniProt P11597) (assay: Inhibitory effect in vitro on CETP activity in total plasma). Conditions: plasma of healthy subject with [3H]CE-HDL3, 37° C., 4 hr; average values.
T1 construct: The donor lipoprotein obtained above was added to plasma of healthy subject; from tissue; host or cells: whole plasma of healthy subject
T1 sequence (P11597 18-493): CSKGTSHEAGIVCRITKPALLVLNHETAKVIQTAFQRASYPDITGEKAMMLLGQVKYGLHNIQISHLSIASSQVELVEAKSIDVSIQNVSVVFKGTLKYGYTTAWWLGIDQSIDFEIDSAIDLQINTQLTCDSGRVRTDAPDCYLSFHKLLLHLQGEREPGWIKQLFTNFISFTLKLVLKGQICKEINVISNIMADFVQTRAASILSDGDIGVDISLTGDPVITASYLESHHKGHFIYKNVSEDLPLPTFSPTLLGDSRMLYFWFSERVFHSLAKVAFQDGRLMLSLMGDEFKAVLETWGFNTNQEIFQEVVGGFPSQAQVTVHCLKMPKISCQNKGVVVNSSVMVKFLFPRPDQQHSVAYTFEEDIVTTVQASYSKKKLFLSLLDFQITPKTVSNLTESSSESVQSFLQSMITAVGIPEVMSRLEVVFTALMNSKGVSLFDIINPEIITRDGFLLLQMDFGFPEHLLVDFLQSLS
Type: biochemical
In short: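 Healthy-donor plasma spiked with [3H]cholesteryl ester-labelled HDL3 (1,000 dpm/μL) was incubated with compound (DMF vehicle) for 4 hr at 37 °C or 4 °C. HDL was separated by MgCl2/dextran sulfate precipitation and supernatant radioactivity counted. IC50 is the concentration giving 50% inhibition of CETP activity.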

Molecule | pIC50
CCN(CCCCC(=O)OC)c1cc2c(cc1CN(Cc1cc(C(F)(F)F)cc(C(F)(F)F)c1)c1ncn(C)n1)CCCC2 [Example 74, methyl 5-[N-(3-{[N′-[3,5-bis(trifluoromethyl)benzyl]-N′-(1-methyl-1H-[1,2,4]triazol-3-yl)amino]methyl}-5,6,7,8-tetrahydronaphthalen-2-yl)-N-ethylamino]pentanoate hydrochloride] | 6.40
CCN(C[C@H]1CC[C@H](C(=O)OC)CC1)c1cc2c(cc1CN(Cc1cc(C#N)cc(C(F)(F)F)c1)c1ccn(C)n1)CCCC2 [Example 43, methyl trans-4-{[N-(3-{[N′-(3-cyano-5-trifluoromethylbenzyl)-N′-(1-methyl-1H-pyrazol-3-yl)amino]methyl}-5,6,7,8-tetrahydronaphthalen-2-yl)-N-ethylamino]methyl}cyclohexanecarboxylate hydrochloride] | 6.26
CCN(CCCCC(=O)OC)c1cc2c(cc1CN(Cc1cc(C#N)cc(C(F)(F)F)c1)c1ncn(C)n1)CCCC2 [Example 75, methyl 5-[N-(3-{[N′-(3-cyano-5-trifluoromethylbenzyl)-N′-(1-methyl-1H-[1,2,4]triazol-3-yl)amino]methyl}-5,6,7,8-tetrahydronaphthalen-2-yl)-N-ethylamino]pentanoate hydrochloride] | 6.39
CCN(C[C@H]1CC[C@H](C(=O)O)CC1)c1cc2c(cc1CN(Cc1cc(C(F)(F)F)cc(C(F)(F)F)c1)c1nnn(C)n1)CCC2 [Example 51, trans-4-{[N-(6-{[N′-[3,5-bis(trifluoromethyl)benzyl]-N′-(2-methyl-2H-tetrazol-5-yl)amino]methyl}indan-5-yl)-N-ethylamino]methyl}cyclohexanecarboxylic acid hydrochloride] | 6.39
trans-4-{[N-(6-{[N′-(3-cyano-5-trifluoromethylbenzyl)-N′-(3-methylisoxazol-5-yl)amino]methyl}indan-5-yl)-N-ethylamino]methyl}cyclohexanecarboxylic acid hydrochloride [Example 54] | 6.10
CCN(CC1CCCC1)c1cc2c(cc1CN(Cc1cc(C#N)cc(C(F)(F)F)c1)c1ccccc1)CCC2 [Example 13, 3-({N-[6-(N′-cyclopentylmethyl-N′-ethylamino)indan-5-ylmethyl]-N-phenylamino}methyl)-5-trifluoromethylbenzonitrile] | 6.24

Now those with a higher pIC50, led by results:

pIC50 | Molecule
6.47 | CCN(CCCCC(=O)OC)c1cc2c(cc1CN(Cc1cc(C#N)cc(C(F)(F)F)c1)c1nnn(C)n1)CCC2.Cl [Example 36, hydrochloride]
6.55 | CCN(CC(C)(C)CCC(=O)O)c1cc2c(cc1CN(Cc1cc(C(F)(F)F)cc(C(F)(F)F)c1)c1nnn(C)n1)CCC2 [Example 114, 5-[N-(6-{[N′-[3,5-bis(trifluoromethyl)benzyl]-N′-(2-methyl-2H-tetrazol-5-yl)amino]methyl}indan-5-yl)-N-ethylamino]-4,4-dimethylpentanoic acid hydrochloride]
6.62 | CC(C)CN(C[C@H]1CC[C@H](C(=O)O)CC1)c1ccc(OC(F)(F)F)cc1CN(Cc1cc(C(F)(F)F)cc(C(F)(F)F)c1)c1nnn(C)n1 [Example 122, trans-4-{[N-(2-{[N′-[3,5-bis(trifluoromethyl)benzyl]-N′-(2-methyl-2H-tetrazol-5-yl)amino]methyl}-4-trifluoromethoxyphenyl)-N-isobutylamino]methyl}cyclohexanecarboxylic acid hydrochloride]
6.92 | CCN(C[C@H]1CC[C@H](CCO)CC1)c1ccc(OC(F)(F)F)cc1CN(Cc1cc(C(F)(F)F)cc(C(F)(F)F)c1)c1nnn(C)n1 [Example 140, trans-2-(4-{[N-(2-{[N′-[3,5-bis(trifluoromethyl)benzyl]-N′-(2-methyl-2H-tetrazol-5-yl)amino]methyl}-4-trifluoromethoxyphenyl)-N-ethylamino]methyl}cyclohexyl)ethanol hydrochloride]
